Measurements: PMC9604483, “Crystal Structure of CYP3A4 Complexed with Fluorol Identifies the Substrate Access Channel as a High-Affinity Ligand Binding Site” (International Journal of Molecular Sciences, 2022)
Like-named read-outs stand apart in the source and are kept apart here.

Key:
[1] = target: T1, WT CYP3A4 (Homo sapiens, UniProt P08684); experiment: Equilibrium absorbance titrations of CYP3A4 with progesterone; assay type: binding
T1 construct: made in house

[2] = target: T2, T224A CYP3A4 (Homo sapiens, UniProt P08684, T224A); experiment: as above; assay type: binding
T2 construct: made in house

[3] = target: CYP3A4 (Homo sapiens, UniProt P08684); experiment: Progesterone binding to CYP3A4 (authors' estimate of Kd)
Experimental: Equal amounts of DMSO were added to the protein solutions to avoid buffer-related changes in fluorol emission. Fluorescence changes were monitored with λex of 455 nm and a 495 nm cutoff emission filter. […] Kinetics were analyzed using the Igor Pro software (WaveMetrics, Oswego, OR, USA).

T2 sequence (P08684 with tags, fused parts or gaps T224A): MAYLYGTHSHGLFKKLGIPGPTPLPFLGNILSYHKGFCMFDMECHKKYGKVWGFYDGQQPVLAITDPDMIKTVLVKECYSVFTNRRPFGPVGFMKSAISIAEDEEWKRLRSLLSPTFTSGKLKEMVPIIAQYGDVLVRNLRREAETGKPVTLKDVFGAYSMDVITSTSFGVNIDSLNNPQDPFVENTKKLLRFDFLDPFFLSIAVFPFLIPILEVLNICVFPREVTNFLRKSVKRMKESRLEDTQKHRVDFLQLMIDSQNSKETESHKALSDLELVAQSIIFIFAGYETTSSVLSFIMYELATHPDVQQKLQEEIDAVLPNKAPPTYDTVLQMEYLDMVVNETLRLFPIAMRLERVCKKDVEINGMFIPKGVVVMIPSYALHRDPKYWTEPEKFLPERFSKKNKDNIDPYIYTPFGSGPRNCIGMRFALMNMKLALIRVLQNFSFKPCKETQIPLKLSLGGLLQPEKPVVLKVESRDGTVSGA
Chain of CYP3A4 (P08684 whole entry): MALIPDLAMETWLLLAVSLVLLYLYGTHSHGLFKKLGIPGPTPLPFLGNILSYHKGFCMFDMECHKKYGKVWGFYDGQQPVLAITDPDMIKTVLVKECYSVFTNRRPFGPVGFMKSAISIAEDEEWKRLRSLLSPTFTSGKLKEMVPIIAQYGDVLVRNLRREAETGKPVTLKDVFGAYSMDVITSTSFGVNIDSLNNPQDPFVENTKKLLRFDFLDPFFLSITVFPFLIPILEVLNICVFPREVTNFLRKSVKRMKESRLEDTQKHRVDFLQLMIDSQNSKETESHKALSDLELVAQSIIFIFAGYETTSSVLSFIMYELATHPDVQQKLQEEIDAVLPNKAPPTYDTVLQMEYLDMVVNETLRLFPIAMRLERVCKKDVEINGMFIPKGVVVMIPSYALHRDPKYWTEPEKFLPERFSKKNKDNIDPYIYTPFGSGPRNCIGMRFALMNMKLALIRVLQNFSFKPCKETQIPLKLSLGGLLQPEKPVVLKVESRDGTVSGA
T1 sequence (P08684 with tags, fused parts or gaps): as the sequence (P08684 with tags, fused parts or gaps T224A) above, with A204T counted along it

`CC(=O)[C@H]1CC[C@H]2[C@@H]3CCC4=CC(=O)CC[C@]4(C)[C@H]3CC[C@]12C` [progesterone] was tested, and the “S50 (concentration at half saturation)” value ([1]; 2 μM WT CYP3A4, sigmoidal fitting) was 32 ± 2 µM, the “High-spin content in PRG-bound CYP3A4” value ([1]; end of titration, WT) was 71% and the “Hill coefficient (nH)” value ([2]; 2 μM T224A CYP3A4) was 1.37. The “S50 (concentration at half saturation)” value ([2]; 2 μM T224A CYP3A4, sigmoidal fitting) was 25 ± 4 µM, the “Decrease in the high-spin content on elimination of Thr224” value ([2]; PRG-bound, T224A vs WT) was 9% and the “High-spin content in PRG-bound CYP3A4” value ([2]; end of titration, T224A) was 62%. For the same compound, the Kd ([3]; human) was 45 µM and the Kd ([3]; our estimate, read-out: Kd, high-affinity site) was 5 µM.
